Active and inactive are the calls of the source. The rule behind the calls is not given here.
How the values were obtained:
[1] = Anticancer activity against human 502713 cells assessed as cell viability after 48 hrs by SRB assay; type: functional, cell-based; settings: Homo sapiens, 502713, 48 h
HCT-15 = test: Anticancer activity against human HCT15 cells assessed as cell viability after 48 hrs by SRB assay; type: functional, cell-based; settings: HCT-15, 48 h
HEp-2 = test: Anticancer activity against human Hep2 cells assessed as cell viability after 48 hrs by SRB assay; type: functional, cell-based; settings: HEp-2, 48 h
IMR-32 = test: Anticancer activity against human IMR32 cells assessed as cell viability after 48 hrs by SRB assay; type: functional, cell-based; settings: IMR-32, 48 h
A549 = test: Anticancer activity against human A549 cells assessed as cell viability after 48 hrs by SRB assay; type: functional, cell-based; settings: A549, 48 h
DU-145 = test: Anticancer activity against human DU145 cells assessed as cell viability after 48 hrs by SRB assay; type: functional, cell-based; settings: DU-145, 48 h
PC-3 = test: Anticancer activity against human PC3 cells assessed as cell viability after 48 hrs by SRB assay; type: functional, cell-based; settings: PC-3, 48 h
[2] = Inhibition of DNA topoisomerase 2 assessed as inhibition of relaxation of supercoiled pBR322 plasmid DNA at 10 to 500 uM by gel electrophoresis
[3] = Inhibition of DNA topoisomerase 2 assessed as inhibition of relaxation of supercoiled pBR322 plasmid DNA at 1 mM by gel electrophoresis
MOLT-4 [4] = test: Induction of apoptosis in human MOLT4 cells assessed as DNA fragmentation at 0.5 uM after 24 hrs by agarose gel electrophoresis; type: functional, cell-based
MOLT-4 [5] = test: Induction of apoptosis in human MOLT4 cells assessed as DNA fragmentation at 1 uM after 24 hrs by agarose gel electrophoresis; type: functional, cell-based
MOLT-4 [6] = test: Induction of apoptosis in human MOLT4 cells assessed as DNA fragmentation at 5 uM after 24 hrs by agarose gel electrophoresis; type: functional, cell-based
MOLT-4 [7] = test: Induction of apoptosis in human MOLT4 cells assessed as DNA fragmentation at 10 uM after 24 hrs by agarose gel electrophoresis; type: functional, cell-based
MOLT-4 [8] = test: Cell cycle arrest in human MOLT4 cells assessed as accumulation at sub G1 phase at 0.5 uM after 24 hrs using propidium iodide staining by flow cytometry; type: functional, cell-based
MOLT-4 [9] = test: Cell cycle arrest in human MOLT4 cells assessed as accumulation at sub G1 phase at 1 uM after 24 hrs using propidium iodide staining by flow cytometry; type: functional, cell-based
MOLT-4 [10] = test: Cell cycle arrest in human MOLT4 cells assessed as accumulation at sub G1 phase at 5 uM after 24 hrs using propidium iodide staining by flow cytometry; type: functional, cell-based
MOLT-4 [11] = test: Cell cycle arrest in human MOLT4 cells assessed as accumulation at sub G1 phase at 10 uM after 24 hrs using propidium iodide staining by flow cytometry; type: functional, cell-based
[12] = Inhibition of DNA topoisomerase 2 assessed as inhibition of relaxation of supercoiled pBR322 plasmid DNA at 10 uM by gel electrophoresis

COc1cc([C@@H]2c3cc4c(cc3[C@@H](Nc3ccc(C(=O)c5ccc(F)cc5)cc3)[C@H]3COC(=O)[C@H]23)OCO4)cc(OC)c1O
IC50 [1]: 1400 nM
IC50 (HCT-15): 80 nM
IC50 (HEp-2): 1300 nM
IC50 (IMR-32): 1300 nM
IC50 (A549): 200 nM
IC50 (DU-145): 300 nM
IC50 (PC-3): 6000 nM

COc1cc([C@@H]2c3cc4c(cc3[C@@H](Nc3cccc5c3Cc3ccccc3-5)[C@H]3COC(=O)[C@H]23)OCO4)cc(OC)c1OC
IC50 [1]: 5500 nM
IC50 (HCT-15): 90 nM
IC50 (HEp-2): 3000 nM
IC50 (IMR-32): 5500 nM
IC50 (A549): 7100 nM
IC50 (DU-145): 6600 nM
IC50 (PC-3): 4300 nM

O=c1[nH]cc(F)c(=O)[nH]1 [FLUOROURACIL]
IC50 [1]: 4600 nM
IC50 (HCT-15): 3600 nM
IC50 (HEp-2): 300 nM
IC50 (IMR-32): 18000 nM
IC50 (A549): 2400 nM
IC50 (DU-145): 4800 nM
IC50 (PC-3): 12000 nM

COc1cc([C@@H]2c3cc4c(cc3[C@@H](Nc3cc5c6ccccc6ccc5c5ccccc35)[C@H]3COC(=O)[C@H]23)OCO4)cc(OC)c1O
inhibition [2]: Active
inhibition [3]: Active
IC50 [1]: 100 nM
IC50 (HCT-15): 100 nM
IC50 (HEp-2): 10 nM
IC50 (IMR-32): 1 nM
IC50 (A549): 0.3 nM
IC50 (DU-145): 0.3 nM
IC50 (PC-3): 0.3 nM

COc1cc([C@@H]2c3cc4c(cc3[C@@H](Nc3ccc(C(=O)c5ccc(F)cc5)cc3)[C@H]3COC(=O)[C@H]23)OCO4)cc(OC)c1OC
IC50 [1]: 4100 nM
IC50 (HCT-15): 6200 nM
IC50 (HEp-2): 7100 nM
IC50 (IMR-32): 19000 nM
IC50 (A549): 17000 nM
IC50 (PC-3): 6700 nM

COc1cc([C@@H]2c3cc4c(cc3[C@@H](Nc3ccc(C(=O)c5ccc(N(CCCl)CCCl)cc5)cc3)[C@H]3COC(=O)[C@H]23)OCO4)cc(OC)c1OC
IC50 [1]: 100 nM
IC50 (HCT-15): 900 nM
IC50 (HEp-2): 900 nM
IC50 (IMR-32): 6300 nM
IC50 (A549): 3080 nM
IC50 (DU-145): 3700 nM
IC50 (PC-3): 2600 nM

COc1cc([C@@H]2c3cc4c(cc3[C@@H](Nc3cc5c6ccccc6ccc5c5ccccc35)[C@H]3COC(=O)[C@H]23)OCO4)cc(OC)c1OC
Activity (MOLT-4 [4]): Active
Activity (MOLT-4 [5]): Active
Activity (MOLT-4 [6]): Active
Activity (MOLT-4 [7]): Active
Activity (MOLT-4 [8]): Active
Activity (MOLT-4 [9]): Active
Activity (MOLT-4 [10]): Active
Activity (MOLT-4 [11]): Active
inhibition [2]: Active
inhibition [3]: Active
IC50 [1]: 100 nM
IC50 (HCT-15): 2 nM
IC50 (HEp-2): 2 nM
IC50 (IMR-32): 3 nM
IC50 (A549): 40 nM
IC50 (DU-145): 2200 nM
IC50 (PC-3): 100 nM

CC[C@@]1(O)C(=O)OCc2c1cc1n(c2=O)Cc2cc3ccccc3nc2-1 [CAMPTOTHECIN]
Activity (MOLT-4 [10]): Active
IC50 (HCT-15): 67 nM
IC50 (HEp-2): 700 nM
IC50 (IMR-32): 80 nM
IC50 (A549): 30 nM
IC50 (DU-145): 20 nM
IC50 (PC-3): 30 nM

COc1cc([C@@H]2c3cc4c(cc3[C@@H](Nc3cccc5cc6ccccc6cc35)[C@H]3COC(=O)[C@H]23)OCO4)cc(OC)c1OC
IC50 [1]: 9400 nM
IC50 (HCT-15): 6300 nM
IC50 (HEp-2): 6700 nM
IC50 (IMR-32): 6700 nM
IC50 (A549): 8800 nM
IC50 (DU-145): 21000 nM
IC50 (PC-3): 7900 nM

COc1cc([C@@H]2c3cc4c(cc3[C@@H](Nc3ccc5ccc6cccc7ccc3c5c67)[C@H]3COC(=O)[C@H]23)OCO4)cc(OC)c1O
IC50 [1]: 2 nM
IC50 (HCT-15): 0.1 nM
IC50 (HEp-2): 0.2 nM
IC50 (IMR-32): 200 nM
IC50 (A549): 1700 nM
IC50 (DU-145): 2200 nM

COc1cc([C@@H]2c3cc4c(cc3[C@@H](O[C@@H]3O[C@@H]5CO[C@@H](C)O[C@H]5[C@H](O)[C@H]3O)[C@H]3COC(=O)[C@H]23)OCO4)cc(OC)c1O [ETOPOSIDE]
inhibition [12]: Active
IC50 [1]: 100 nM
IC50 (HCT-15): 900 nM
IC50 (HEp-2): 900 nM
IC50 (IMR-32): 6300 nM
IC50 (A549): 3080 nM
IC50 (DU-145): 3700 nM
IC50 (PC-3): 2600 nM

COc1cc([C@@H]2c3cc4c(cc3[C@@H](Nc3cccc5c3Cc3ccccc3-5)[C@H]3COC(=O)[C@H]23)OCO4)cc(OC)c1O
IC50 [1]: 1 nM
IC50 (HCT-15): 0.1 nM
IC50 (HEp-2): 1000 nM
IC50 (IMR-32): 10000 nM
IC50 (A549): 1000 nM
IC50 (DU-145): 2700 nM
IC50 (PC-3): 500 nM

COc1cc([C@@H]2c3cc4c(cc3[C@@H](Nc3ccc5ccc6cccc7ccc3c5c67)[C@H]3COC(=O)[C@H]23)OCO4)cc(OC)c1OC
inhibition [2]: Active
inhibition [3]: Active
IC50 [1]: 2 nM
IC50 (HCT-15): 0.1 nM
IC50 (A549): 0.9 nM
IC50 (PC-3): 0.1 nM

COc1cc([C@@H]2c3cc4c(cc3[C@@H](Nc3cccc5cc6ccccc6cc35)[C@H]3COC(=O)[C@H]23)OCO4)cc(OC)c1O
IC50 (HCT-15): 8200 nM
IC50 (HEp-2): 8600 nM
IC50 (IMR-32): 2300 nM
IC50 (A549): 8300 nM
IC50 (DU-145): 18000 nM

— ChEMBL document CHEMBL1287803, “Synthesis of 4β-N-polyaromatic substituted podophyllotoxins: DNA topoisomerase inhibition, anticancer and apoptosis-inducing activities” (Bioorg Med Chem, 2010)
